The structures appear in SMILES notation.

For this assay, the target named is hDGAT2 (Homo sapiens (Human), UniProt Q96PD7). The experiment in a line: DGAT2 enzymatic activity assay (triolein formation, LC/MS/MS). The settings on record: read-out: IC50 values for inhibition of DGAT2; membrane prep of Sf-9 cells expressing hDGAT2; 25 μM diolein, 10 μM oleoyl-CoA; room temperature; triolein by LC/MS/MS.
Sequence of hDGAT2 (Q96PD7 whole entry): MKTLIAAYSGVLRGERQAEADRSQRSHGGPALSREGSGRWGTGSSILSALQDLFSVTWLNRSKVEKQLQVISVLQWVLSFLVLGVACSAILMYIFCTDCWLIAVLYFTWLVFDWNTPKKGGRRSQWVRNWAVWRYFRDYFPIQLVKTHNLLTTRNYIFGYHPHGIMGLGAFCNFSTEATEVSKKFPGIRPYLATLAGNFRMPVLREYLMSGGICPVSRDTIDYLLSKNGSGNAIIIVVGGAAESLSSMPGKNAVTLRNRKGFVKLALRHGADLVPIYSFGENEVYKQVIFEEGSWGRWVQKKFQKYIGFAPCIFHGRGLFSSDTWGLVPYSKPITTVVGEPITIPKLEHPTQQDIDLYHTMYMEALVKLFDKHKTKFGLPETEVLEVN
For orientation: IC50 means the concentration that inhibits the measured activity by half. In the case of `COc1cccc(-c2ccc(CNC(=O)C3CC3c3ccc(F)cc3)c3cnccc23)c1` (centres unmarked) [Example 102, 2-(4-fluorophenyl)-N-((5-(3-methoxyphenyl)isoquinolin-8-yl)methyl)cyclopropanecarboxamide], the IC50 is 178 nM. The result for `COc1cccc(-c2ccc(CNC(=O)C3(S(=O)(=O)c4ccc(Cl)cc4)CC3)c3cnccc23)c1` [Example 103, 1-((4-chlorophenyl)sulfonyl)-N-((5-(3-methoxyphenyl)isoquinolin-8-yl)methyl)cyclopropanecarboxamide] reads 1180 nM; that for `COc1cccc(-c2ccc(CNC(=O)C3CC3c3cccnc3)c3cnccc23)c1` (centres unmarked) [Example 104, N-((5-(3-methoxyphenyl)isoquinolin-8-yl)methyl)-2-(pyridin-3-yl)cyclopropanecarboxamide], 483 nM. On to `COc1cccc(-c2ccc(CNC(=O)C3CC3c3ccccn3)c3cnccc23)c1` (centres unmarked) [Example 105, N-((5-(3-methoxyphenyl)isoquinolin-8-yl)methyl)-2-(pyridin-2-yl)cyclopropanecarboxamide], for which the IC50 stood at 7440 nM. On to `COc1ccc(C2CC2C(=O)NCc2ccc(-c3cccc(OC)c3)c3ccncc23)cc1` (centres unmarked) [Example 106, 2-(4-methoxyphenyl)-N-((5-(3-methoxyphenyl)isoquinolin-8-yl)methyl)cyclopropanecarboxamide], for which the IC50 is 537 nM.

For `COc1cccc(-c2ccc(CNC(=O)C3CC3c3cccc(OC)c3)c3cnccc23)c1` (centres unmarked) [Example 107, 2-(3-methoxyphenyl)-N-((5-(3-methoxyphenyl)isoquinolin-8-yl)methyl)cyclopropanecarboxamide], the IC50 came out at 1180 nM.

For the compound `COc1cccc(-c2ccc(CNC(=O)C3CC3(F)c3ccccc3)c3cnccc23)c1` (centres unmarked) [Example 109, 2-fluoro-N-((5-(3-methoxyphenyl)isoquinolin-8-yl)methyl)-2-phenylcyclopropanecarboxamide], the IC50 worked out at 696 nM. The result for `COc1cccc(-c2ccc(CNC(=O)c3n[nH]c(=O)c4ccccc34)c3cnccc23)c1` [Example 110, N-((5-(3-methoxyphenyl)isoquinolin-8-yl)methyl)-4-oxo-3,4-dihydrophthalazine-1-carboxamide] reads 544 nM. On to `COc1cccc(-c2ccc(CNC(=O)C(C)(C)Oc3ccc(C(F)(F)F)cc3)c3cnccc23)c1` [Example 111, N-((5-(3-methoxyphenyl)isoquinolin-8-yl)methyl)-2-methyl-2-(4-(trifluoromethyl)phenoxy)propanamide], for which the IC50 was determined as 1230 nM. Regarding `COc1cccc(-c2ccc(CNC(=O)C(C)(C)Oc3ccc(C(F)(F)F)cn3)c3cnccc23)c1` [Example 112, N-((5-(3-methoxyphenyl)isoquinolin-8-yl)methyl)-2-methyl-2-((5-(trifluoromethyl)pyridin-2-yl)oxy)propanamide], the IC50 came to 1160 nM. In the case of `COc1cccc(-c2ccc(CNC(=O)c3cn(Cc4ccccc4)nn3)c3cnccc23)c1` [Example 113, 1-benzyl-N-((5-(3-methoxyphenyl)isoquinolin-8-yl)methyl)-1H-1,2,3-triazole-4-carboxamide], the IC50 came out at 5890 nM. For `COc1cccc(-c2ccc(CNC(=O)C(C)(C)Oc3cc(C(F)(F)F)ccn3)c3cnccc23)c1` [Example 114, N-((5-(3-methoxyphenyl)isoquinolin-8-yl)methyl)-2-methyl-2-((4-(trifluoromethyl)pyridin-2-yl)oxy)propanamide], the IC50 turned out to be 6110 nM. The result for `COc1cccc(-c2ccc(CNC(=O)c3cnn(Cc4ccccc4)c3)c3cnccc23)c1` [Example 115, 1-benzyl-N-((5-(3-methoxyphenyl)isoquinolin-8-yl)methyl)-1H-pyrazole-4-carboxamide] reads 3390 nM. The result for `COc1cccc(-c2ccc(CNC(=O)C(F)(F)c3ccc(Br)cn3)c3cnccc23)c1` [Example 116, 2-(5-bromopyridin-2-yl)-2,2-difluoro-N-((5-(3-methoxyphenyl)isoquinolin-8-yl)methyl)acetamide] reads 8130 nM; that for `COc1cccc(-c2ccc(CNC(=O)c3cc(C)n(Cc4ccccc4)n3)c3cnccc23)c1` [Example 117, 1-benzyl-N-((5-(3-methoxyphenyl)isoquinolin-8-yl)methyl)-5-methyl-1H-pyrazole-3-carboxamide], 942 nM. The result for `COc1cccc(-c2ccc(CNC(=O)c3cncc(C(F)(F)F)c3)c3cnccc23)c1` [Example 119, N-((5-(3-methoxyphenyl)isoquinolin-8-yl)methyl)-5-(trifluoromethyl)nicotinamide] reads 5890 nM; that for `COc1cccc(-c2ccc(CNC(=O)c3cc(Br)cnc3-c3ccccc3)c3cnccc23)c1` [Example 120, 5-bromo-N-((5-(3-methoxyphenyl)isoquinolin-8-yl)methyl)-2-phenylnicotinamide], 4240 nM; that for `COc1cccc(-c2ccc(CNC(=O)c3cc(Br)cnc3C(F)(F)F)c3cnccc23)c1` [Example 121, 5-bromo-N-((5-(3-methoxyphenyl)isoquinolin-8-yl)methyl)-2-(trifluoromethyl)nicotinamide], 1180 nM. For the compound `COc1cccc(-c2ccc(CNC(=O)C3(c4ccc(C(F)(F)F)cc4)CCC3)c3cnccc23)c1` [Example 123, N-((5-(3-methoxyphenyl)isoquinolin-8-yl)methyl)-1-(4-(trifluoromethyl)phenyl)cyclobutanecarboxamide], the IC50 amounted to 513 nM. For the compound `COc1cccc(-c2ccc(CNC(=O)C(F)c3ccc(C(F)(F)F)cc3)c3cnccc23)c1` (centres unmarked) [Example 124, 2-fluoro-N-((5-(3-methoxyphenyl)isoquinolin-8-yl)methyl)-2-(4-(trifluoromethyl)phenyl)acetamide], the IC50 was 2330 nM. The result for `COc1cccc(-c2ccc(CNC(=O)C(c3ccc(C(F)(F)F)cc3)C(C)C)c3cnccc23)c1` (centres unmarked) [Example 125, N-((5-(3-methoxyphenyl)isoquinolin-8-yl)methyl)-3-methyl-2-(4-(trifluoromethyl)phenyl)butanamide] reads 2460 nM; that for `COc1cccc(-c2ccc(CNC(=O)c3cnccc3C(F)(F)F)c3cnccc23)c1` [Example 127, N-((5-(3-methoxyphenyl)isoquinolin-8-yl)methyl)-4-(trifluoromethyl)nicotinamide], 1420 nM. The result for `COc1cccc(-c2ccc(CNC(=O)C3CCN(c4ccc(C(F)(F)F)cc4)CC3)c3cnccc23)c1` [Example 128, N-((5-(3-methoxyphenyl)isoquinolin-8-yl)methyl)-1-(4-(trifluoromethyl)phenyl)piperidine-4-carboxamide] reads 952 nM. In the case of `COc1cccc(-c2ccc(CNC(=O)c3cncc(-c4ccccc4)c3)c3cnccc23)c1` [Example 129, N-((5-(3-methoxyphenyl)isoquinolin-8-yl)methyl)-5-phenylnicotinamide], the IC50 amounted to 2990 nM. As for `COc1cccc(-c2ccc(CNC(=O)C34CC(C3)C4)c3cnccc23)c1` [Example 130, N-((5-(3-methoxyphenyl)isoquinolin-8-yl)methyl)bicyclo[1.1.1]pentane-1-carboxamide], the IC50 was 268 nM.

Take `COc1cccc(-c2ccc(CNC(=O)c3cc(Br)cnc3F)c3cnccc23)c1` [Example 131, 5-bromo-2-fluoro-N-((5-(3-methoxyphenyl)isoquinolin-8-yl)methyl)nicotinamide]: the IC50 was 400 nM.

The record behind these values is patent US9828369B2, “Isoquinoline derivatives useful as inhibitors of diacylglyceride O-acyltransferase 2” (Merck Sharp & Dohme Corp., priority 2014, dated 2017).
